From patent US11053235B2, “Substituted 1,4-dihydropyrimidines for the treatment of HBV infection or HBV-induced diseases” (Janssen Sciences Ireland Unlimited Company, priority 2018, dated 2021)

Experiments:
HBV = test: Anti-viral assay in HepG2.2.15 cells: HBV inhibitory activity (HBV DNA in culture medium by q-PCR); assay type: cell-based; details: Hepatitis B virus, HepG2.2.15, 144 h, HepG2.2.15 cells, 6 days treatment, HBV DNA in culture medium by q-PCR, highest concentration 10 uM; read-out: EC50
In short: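 HBV DNA released into the medium was measured by q-PCR after 6-day compound exposure of HepG2.2.15 cells (40,000/well, 2% FBS, one mid-course medium change). Eight 3-fold dilutions, highest 10 uM; EC50 derived by curve fitting.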

[1] = Cytotoxicity determination in HepG2.2.15 cells (CCK-8); assay type: cell-based; details: human, 6 days treatment, CCK-8, highest concentration 100 uM
In short: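 CC50 derived from CCK-8 absorbance (450 nm, 630 nm reference) after 2.5 h incubation at 37 °C. Before that, HepG2.2.15 cells (5,000/well, 2% FBS) received an 8-point, 3-fold compound series topping at 100 uM for 6 days, with one mid-treatment medium change.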

Structure (SMILES) | EC50 (HBV) | CC50 at 6 days [1]
COC(=O)C1=C(C2CCN(c3ncc(CC(=O)O)c(C)n3)CC2)NC(c2nccs2)=NC1c1ccc(F)c(F)c1Cl (single isomer, unassigned) [II-28-B, 2-(2-(4-(6-(2-Chloro-3,4-difluorophenyl)-5-(methoxycarbonyl)-2-(thiazol-2-yl)-3,6-dihydropyrimidin-4-yl)piperidin-1-yl)-4-methylpyrimidin-5-yl)acetic Acid] | < 4.6 nM | 5330 nM
COC(=O)C1=C(C2CCN(c3ncc(CC(=O)O)cn3)CC2)NC(c2nccs2)=NC1c1ccc(F)c(F)c1Cl (single isomer, unassigned) [II-29-B, 2-(2-(4-(6-(2-Chloro-3,4-difluorophenyl)-5-(methoxycarbonyl)-2-(thiazol-2-yl)-3,6-dihydropyrimidin-4-yl)piperidin-1-yl)pyrimidin-5-yl)acetic Acid] | < 4.6 nM | 9460 nM
COC(=O)C1=C(C2CCN(c3ncc(C(=O)O)s3)CC2)NC(c2nccs2)=NC1c1ccc(F)c(F)c1Cl (single isomer, unassigned) [II-30-B, 2-(4-(6-(2-Chloro-3,4-difluorophenyl)-5-(methoxycarbonyl)-2-(thiazol-2-yl)-3,6-dihydropyrimidin-4-yl)piperidin-1-yl)thiazole-5-carboxylic Acid] | 7.2 nM | 16000 nM
COC(=O)C1=C(C2CCN(c3nc(C(F)(F)F)c(C(=O)O)s3)CC2)NC(c2nccs2)=NC1c1ccc(F)c(F)c1Cl (single isomer, unassigned) [II-31-B, 2-(4-(6-(2-Chloro-3,4-difluorophenyl)-5-(methoxycarbonyl)-2-(thiazol-2-yl)-3,6-dihydropyrimidin-4-yl)piperidin-1-yl)-4-(trifluoromethyl)thiazole-5-carboxylic Acid] | 25 nM | 2610 nM
COC(=O)C1=C(C2CCN(c3nc(C(=O)O)cs3)CC2)NC(c2nccs2)=NC1c1ccc(F)c(F)c1Cl (single isomer, unassigned) [II-32-B, 2-(4-(6-(2-Chloro-3,4-difluorophenyl)-5-(methoxycarbonyl)-2-(thiazol-2-yl)-3,6-dihydropyrimidin-4-yl)piperidin-1-yl)thiazole-4-carboxylic Acid] | 46 nM | 11100 nM
COC(=O)C1=C(C2CCN(c3nc(C(=O)O)co3)CC2)NC(c2nccs2)=NC1c1ccc(F)c(F)c1Cl (single isomer, unassigned) [II-33-B, 2-(4-(6-(2-Chloro-3,4-difluorophenyl)-5-(methoxycarbonyl)-2-(thiazol-2-yl)-3,6-dihydropyrimidin-4-yl)piperidin-1-yl)oxazole-4-carboxylic Acid] | 45 nM | 18600 nM
CCOC(=O)C1=C(C2CCN(c3ccc(C(=O)O)cc3)CC2)NC(c2nccs2)=NC1c1ccc(F)c(F)c1Cl (single isomer, unassigned) [II-35-A, 4-(4-(6-(2-Chloro-3,4-difluorophenyl)-5-(ethoxycarbonyl)-2-(thiazol-2-yl)-3,6-dihydropyrimidin-4-yl)piperidin-1-yl)benzoic Acid] | 20 nM | 3960 nM
CCOC(=O)C1=C(C2CCN(c3cc(O)c(C(=O)O)cn3)CC2)NC(c2nccs2)=NC1c1ccc(F)c(F)c1Cl (single isomer, unassigned) [II-36-B, 6-(4-(6-(2-chloro-3,4-difluorophenyl)-5-(ethoxycarbonyl)-2-(thiazol-2-yl)-3,6-dihydropyrimidin-4-yl)piperidin-1-yl)-4-hydroxynicotinic Acid] | 52 nM | 8650 nM
CCOC(=O)C1=C(C2CCN(c3cccc(C(=O)O)n3)CC2)NC(c2nccs2)=NC1c1ccc(F)c(F)c1Cl (single isomer, unassigned) [II-37-B, 6-(4-(6-(2-Chloro-3,4-difluorophenyl)-5-(ethoxycarbonyl)-2-(thiazol-2-yl)-3,6-dihydropyrimidin-4-yl)piperidin-1-yl)picolinic Acid] | 61 nM | 6410 nM
CCOC(=O)C1=C(C2CCN(c3cc(C(=O)O)cc(C(F)(F)F)n3)CC2)NC(c2nccs2)=NC1c1ccc(F)c(F)c1Cl (single isomer, unassigned) [II-38-B, 2-(4-(6-(2-chloro-3,4-difluorophenyl)-5-(ethoxycarbonyl)-2-(thiazol-2-yl)-3,6-dihydropyrimidin-4-yl)piperidin-1-yl)-6-(trifluoromethyl)isonicotinic Acid] | 81 nM | 3880 nM
CCOC(=O)C1=C(C2CCN(c3cc(C(=O)O)c(C(F)(F)F)cn3)CC2)NC(c2nccs2)=NC1c1ccc(F)c(F)c1Cl (single isomer, unassigned) [II-39-B, 2-(4-(6-(2-Chloro-3,4-difluorophenyl)-5-(ethoxycarbonyl)-2-(thiazol-2-yl)-3,6-dihydropyrimidin-4-yl)piperidin-1-yl)-5-(trifluoromethyl)isonicotinic Acid] | 14 nM | 5380 nM
CCOC(=O)C1=C(C2CCN(c3nccc(C(=O)O)c3F)CC2)NC(c2nccs2)=NC1c1ccc(F)c(F)c1Cl (single isomer, unassigned) [II-40-B, 2-(4-(6-(2-Chloro-3,4-difluorophenyl)-5-(ethoxycarbonyl)-2-(thiazol-2-yl)-3,6-dihydropyrimidin-4-yl)piperidin-1-yl)-3-fluoroisonicotinic Acid] | 9.1 nM | 8370 nM
CCOC(=O)C1=C(C2CCN(c3cc(C(=O)O)ccn3)CC2)NC(c2nccs2)=NC1c1ccc(F)c(F)c1Cl (single isomer, unassigned) [II-41-B, 2-(4-(6-(2-Chloro-3,4-difluorophenyl)-5-(ethoxycarbonyl)-2-(thiazol-2-yl)-3,6-dihydropyrimidin-4-yl)piperidin-1-yl)isonicotinic Acid] | 5.2 nM | 10200 nM
CCOC(=O)C1=C(C2CCN(c3ccc(C(=O)O)nc3Cl)CC2)NC(c2nccs2)=NC1c1ccc(F)c(F)c1Cl (single isomer, unassigned) [II-42-B, 6-Chloro-5-(4-(6-(2-chloro-3,4-difluorophenyl)-5-(ethoxycarbonyl)-2-(thiazol-2-yl)-3,6-dihydropyrimidin-4-yl)piperidin-1-yl)picolinic Acid] | 56 nM | 2570 nM
CCOC(=O)C1=C(C2CCN(c3ccc(C(=O)O)cn3)CC2)NC(c2nccs2)=NC1c1ccc(F)c(F)c1Cl (single isomer, unassigned) [II-43-B, 6-(4-(6-(2-Chloro-3,4-difluorophenyl)-5-(ethoxycarbonyl)-2-(thiazol-2-yl)-3,6-dihydropyrimidin-4-yl)piperidin-1-yl)nicotinic Acid] | 16 nM | 11400 nM
CCOC(=O)C1=C(C2CCN(c3cc(C(F)(F)F)c(C(=O)O)cn3)CC2)NC(c2nccs2)=NC1c1ccc(F)c(F)c1Cl (single isomer, unassigned) [II-44-B, 6-(4-(6-(2-Chloro-3,4-difluorophenyl)-5-(ethoxycarbonyl)-2-(thiazol-2-yl)-3,6-dihydropyrimidin-4-yl)piperidin-1-yl)-4-(trifluoromethyl)nicotinic Acid] | 7.6 nM | 4770 nM
CCOC(=O)C1=C(C2CCN(c3ncc(C(=O)O)cc3F)CC2)NC(c2nccs2)=NC1c1ccc(F)c(F)c1Cl (single isomer, unassigned) [II-45-B, 6-(4-(6-(2-Chloro-3,4-difluorophenyl)-5-(ethoxycarbonyl)-2-(thiazol-2-yl)-3,6-dihydropyrimidin-4-yl)piperidin-1-yl)-5-fluoronicotinic Acid] | 8.7 nM | 4430 nM
CCOC(=O)C1=C(C2CCN(c3cc(C)c(C(=O)O)nn3)CC2)NC(c2nccs2)=NC1c1ccc(F)c(F)c1Cl (single isomer, unassigned) [II-46-B, 6-(4-(6-(2-Chloro-3,4-difluorophenyl)-5-(ethoxycarbonyl)-2-(thiazol-2-yl)-3,6-dihydropyrimidin-4-yl)piperidin-1-yl)-4-methylpyridazine-3-carboxylic Acid] | 100 nM | 3670 nM
CCOC(=O)C1=C(C2CCN(c3cnc(OC)c(C(=O)O)n3)CC2)NC(c2nccs2)=NC1c1ccc(F)c(F)c1Cl (single isomer, unassigned) [II-47-B, 6-(4-(6-(2-chloro-3,4-difluorophenyl)-5-(ethoxycarbonyl)-2-(thiazol-2-yl)-3,6-dihydropyrimidin-4-yl)piperidin-1-yl)-3-methoxypyrazine-2-carboxylic Acid] | 25 nM | 11100 nM
CCOC(=O)C1=C(C2CCN(c3cnc(C)c(C(=O)O)n3)CC2)NC(c2nccs2)=NC1c1ccc(F)c(F)c1Cl (single isomer, unassigned) [II-48-B, 6-(4-(6-(2-chloro-3,4-difluorophenyl)-5-(ethoxycarbonyl)-2-(thiazol-2-yl)-3,6-dihydropyrimidin-4-yl)piperidin-1-yl)-3-methylpyrazine-2-carboxylic Acid] | 79 nM | 12900 nM
CCOC(=O)C1=C(C2CCN(c3cnc(C(=O)O)c(C)n3)CC2)NC(c2nccs2)=NC1c1ccc(F)c(F)c1Cl (single isomer, unassigned) [II-49-B, 5-(4-(6-(2-Chloro-3,4-difluorophenyl)-5-(ethoxycarbonyl)-2-(thiazol-2-yl)-3,6-dihydropyrimidin-4-yl)piperidin-1-yl)-3-methylpyrazine-2-carboxylic Acid] | 50 nM | 110 nM
CCOC(=O)C1=C(C2CCN(c3ncc(C(=O)O)o3)CC2)NC(c2nccs2)=NC1c1ccc(F)c(F)c1Cl (single isomer, unassigned) [II-50-B, 2-(4-(6-(2-Chloro-3,4-difluorophenyl)-5-(ethoxycarbonyl)-2-(thiazol-2-yl)-3,6-dihydropyrimidin-4-yl)piperidin-1-yl)oxazole-5-carboxylic Acid] | 26 nM | 19000 nM
